Measured values taken from EP4603546A1, “SOLID DISPERSION CONTAINING SUBSTANCE TO BE DISPERSED, PHARMACEUTICAL COMPOSITION CONTAINING SAME, AND PRODUCTION METHODS THEREFOR” (CHUGAI SEIYAKU KABUSHIKI KAISHA, priority 2022, dated 2024).
In brackets after ≈: the same amount, converted by molar mass. Numbered stars: 1 amine (or outer) side, 2 acyl side, 3 side chain; on linkers, the order of the positions; unused ones are H or OH. Bridge positions count the residues as written; N and C are the ends. Square brackets hold non-standard residues; d marks the D form. Peptide text beside a SMILES is read from it. * marks the point of attachment. hPhe(3,5-F2-4-CF3) = N[C@@H](CCc1cc(F)c(C(F)(F)F)c(F)c1)C(=O)O; hPhe(3-Cl-4-CF3) = N[C@@H](CCc1ccc(C(F)(F)F)c(Cl)c1)C(=O)O; NMePhe(4-CF3) = CN[C@@H](Cc1ccc(C(F)(F)F)cc1)C(=O)O; NEtPhe(4-Me) = CCN[C@@H](Cc1ccc(C)cc1)C(=O)O; NMePhe(4-Me) = CN[C@@H](Cc1ccc(C)cc1)C(=O)O; NMedβ3hAla = C[C@H](CC(=O)[*:2])N(C)[*:1]; NMeGly(cPent) = CN[C@H](C(=O)O)C1CCCC1; Pro(4,4-F2) = O=C(O)[C@@H]1CC(F)(F)CN1; NMeGly(cBu) = CN[C@H](C(=O)O)C1CCC1; NMeCha = CN[C@@H](CC1CCCCC1)C(=O)O; Hyp = O=C(O)[C@@H]1C[C@@H](O)CN1; NMeChg = CN[C@H](C(=O)O)C1CCCCC1; NMeI = CC[C@H](C)[C@H](NC)C(=O)O; NMeD = CN[C@@H](CC(=O)O)C(=O)O; NMeL = CN[C@@H](CC(C)C)C(=O)O; NMeA = CN[C@@H](C)C(=O)O; Pyrrolidide = C1CCN(*)C1; Ac5c = NC1(C(=O)O)CCCC1; Aze = O=C(O)[C@@H]1CCN1; Sar = CNCC(=O)O

assay: physchem; details: pH 6.5, aqueous buffer
Method: Solubility (unit: mg/mL) was calculated from the measured compound concentration. The HPLC conditions are as follows. Detector: ultraviolet absorption photometer (measurement wavelength: 230 nm) Column: stainless steel tube of 2.1 mm inner diameter, 5 cm long filled with 1.7 µm ethylene cross-linked hybrid particles for liquid chromatography Column temperature: constant temperature near 70°C Mobile phase A: water/trifluoroacetic acid mixed solution (2000/1) Mobile phase B: acetonitrile/trifluoroacetic acid mixed solution (2000/1) Liquid delivery of mobile phase: concentration gradient control by changing the mixing ratio of mobile phase A and mobile phase B as shown in Table 8 below [Table 8]

Row | solubility thermodynamic [µg/mL] | Compound
1 | 1 (≈ 0.689 µM) | CCO[C@@H]1C[C@H]2C(=O)NC3(CCCC3)C(=O)N(C)[C@@H]([C@@H](C)CC)C(=O)N(C)[C@H](C)CC(=O)N(C)[C@@H](CC(C)C)C(=O)N[C@@H]([C@@H](C)CC)C(=O)N(C)[C@@H](C)C(=O)N3CC[C@H]3C(=O)N(C)[C@@H](Cc3ccc(C(F)(F)F)cc3)C(=O)N(C)CC(=O)N[C@@H](CCc3ccc(C(F)(F)F)c(Cl)c3)C(=O)N2C1 [Compound II] (cyclo([Ac5c][NMeI][NMedβ3hAla][NMeL]I[NMeA][Aze][NMePhe(4-CF3)][Sar][hPhe(3-Cl-4-CF3)][Hyp](Et)))
2 | 10 (≈ 6.96 µM) | CC[C@H](C)[C@@H]1NC(=O)[C@H](CC(C)C)N(C)C(=O)C[C@@H](C(=O)N2CCCC2)N(C)C(=O)[C@H]([C@@H](C)CC)N(C)C(=O)C2(CCCC2)NC(=O)[C@@H]2CCCN2C(=O)[C@H](CCc2ccc(C(F)(F)F)c(Cl)c2)NC(=O)CN(C)C(=O)[C@H](Cc2ccc(C)cc2)N(C)C(=O)[C@@H]2CCN2C(=O)[C@H](C)N(C)C1=O [Compound III] ([NMeL]I[NMeA][Aze][NMePhe(4-Me)][Sar][hPhe(3-Cl-4-CF3)]P[Ac5c][NMeI][NMeD]-Pyrrolidide; lactam N-11)
3 | < 1 | CC[C@H](C)[C@@H]1NC(=O)[C@H](C2CCC2)N(C)C(=O)C[C@@H](C(=O)N2CCCC2)N(C)C(=O)[C@H](C2CCCCC2)N(C)C(=O)C2(CCCC2)NC(=O)[C@@H]2CC(F)(F)CN2C(=O)[C@H](CCc2cc(F)c(C(F)(F)F)c(F)c2)NC(=O)CN(C)C(=O)[C@H](CC2CCCCC2)N(C)C(=O)CN(C)C(=O)CN(C)C1=O [Compound V] ([NMeGly(cBu)]I[Sar][Sar][NMeCha][Sar][hPhe(3,5-F2-4-CF3)][Pro(4,4-F2)][Ac5c][NMeChg][NMeD]-Pyrrolidide; lactam N-11)
4 | 20 (≈ 14.2 µM) | CC[C@H](C)[C@@H]1NC(=O)[C@H](CC(C)C)N(C)C(=O)C[C@@H](C(=O)N(C)C)N(C)C(=O)[C@H]([C@@H](C)CC)N(C)C(=O)C2(CCCC2)NC(=O)[C@@H]2CCCN2C(=O)[C@H](CCc2ccc(C(F)(F)F)c(Cl)c2)NC(=O)CN(C)C(=O)[C@H](Cc2ccc(C)cc2)N(C)C(=O)[C@@H]2CCN2C(=O)[C@H](C)N(C)C1=O [Compound IV] ([NMeL]I[NMeA][Aze][NMePhe(4-Me)][Sar][hPhe(3-Cl-4-CF3)]P[Ac5c][NMeI][NMeD]-NMe2; lactam N-11)
5 | < 1 | CC[C@H](C)[C@@H]1NC(=O)[C@H](CC(C)C)N(C)C(=O)C[C@@H](C(=O)N(C)C)N(C)C(=O)[C@H](C2CCCC2)N(C)C(=O)C2(CCCC2)NC(=O)[C@@H]2CCCN2C(=O)[C@H](CCc2cc(F)c(C(F)(F)F)c(F)c2)NC(=O)CN(C)C(=O)[C@H](Cc2ccc(C)cc2)N(CC)C(=O)[C@@H]2CCN2C(=O)[C@H](C)N(C)C1=O [Compound I] ([NMeL]I[NMeA][Aze][NEtPhe(4-Me)][Sar][hPhe(3,5-F2-4-CF3)]P[Ac5c][NMeGly(cPent)][NMeD]-NMe2; lactam N-11)
